Source: PMC3157398 (PLoS ONE, 2011)

Key:
[1] = molecular target: mycobacterial ATP synthase (Mycolicibacterium smegmatis, UniProt A0R205+A0R206)
ATP synthase holoenzyme = ATP synthase holoenzyme (Bacillus sp., UniProt P00845+P09218); format: binding, Bacillus PS3
ATP synthase subunit c = molecular target: T1, ATP synthase subunit c (Mycobacterium tuberculosis, UniProt P9WPS1); format: binding
T1 construct: made in house

[2] = test system: ATP synthase with resistance mutation D32V in subunit c; format: biochemical, Mycobacterium smegmatis

T1 sequence (P9WPS1 whole entry): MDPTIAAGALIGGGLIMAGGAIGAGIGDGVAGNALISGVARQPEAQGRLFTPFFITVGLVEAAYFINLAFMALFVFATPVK

Compound: CC(C)(C)c1cc(C=C(C#N)C#N)cc(C(C)(C)C)c1O [SF6847]
- residual ATP synthesis activity [1]: < 10%

Compound: COc1nc2ccc(N)cc2cc1[C@@H](c1ccccc1)[C@@](O)(CCN(C)C)c1cccc2ccccc12 [TMC207 amino-analog]
- dissociation constant of mono-exponential fit (ATP synthase holoenzyme): 0.000103
- dissociation constant of mono-exponential fit (ATP synthase subunit c): 0.002295

Compound: COc1nc2ccc(Br)cc2cc1[C@@H](c1ccccc1)[C@@](O)(CCN(C)C)c1cccc2ccccc12 [TMC207]
- inhibition of ATP synthesis [2]: no inhibition
